Measured values: US10590078B2, “Sodium channel blockers” (Daewoong Pharmaceutical Co., Ltd., priority 2015, dated 2020)
Like-named read-outs stand apart in the source and are kept apart here.

Molecular target: human sodium ion channel 1.7 (hNav1.7) (Homo sapiens, UniProt Q15858)
Test: Blocking effect against sodium ion channel Nav1.7, IonFlux16 auto patch clamp in hNav1.7 HEK293 cells
Type: cell-based
[1] = hNav1.7 HEK293 cells, inhibition of peak current after 50 seconds treatment, eight concentrations, read-out: IC50

human sodium ion channel 1.7 (hNav1.7), sequence (Q15858 whole entry): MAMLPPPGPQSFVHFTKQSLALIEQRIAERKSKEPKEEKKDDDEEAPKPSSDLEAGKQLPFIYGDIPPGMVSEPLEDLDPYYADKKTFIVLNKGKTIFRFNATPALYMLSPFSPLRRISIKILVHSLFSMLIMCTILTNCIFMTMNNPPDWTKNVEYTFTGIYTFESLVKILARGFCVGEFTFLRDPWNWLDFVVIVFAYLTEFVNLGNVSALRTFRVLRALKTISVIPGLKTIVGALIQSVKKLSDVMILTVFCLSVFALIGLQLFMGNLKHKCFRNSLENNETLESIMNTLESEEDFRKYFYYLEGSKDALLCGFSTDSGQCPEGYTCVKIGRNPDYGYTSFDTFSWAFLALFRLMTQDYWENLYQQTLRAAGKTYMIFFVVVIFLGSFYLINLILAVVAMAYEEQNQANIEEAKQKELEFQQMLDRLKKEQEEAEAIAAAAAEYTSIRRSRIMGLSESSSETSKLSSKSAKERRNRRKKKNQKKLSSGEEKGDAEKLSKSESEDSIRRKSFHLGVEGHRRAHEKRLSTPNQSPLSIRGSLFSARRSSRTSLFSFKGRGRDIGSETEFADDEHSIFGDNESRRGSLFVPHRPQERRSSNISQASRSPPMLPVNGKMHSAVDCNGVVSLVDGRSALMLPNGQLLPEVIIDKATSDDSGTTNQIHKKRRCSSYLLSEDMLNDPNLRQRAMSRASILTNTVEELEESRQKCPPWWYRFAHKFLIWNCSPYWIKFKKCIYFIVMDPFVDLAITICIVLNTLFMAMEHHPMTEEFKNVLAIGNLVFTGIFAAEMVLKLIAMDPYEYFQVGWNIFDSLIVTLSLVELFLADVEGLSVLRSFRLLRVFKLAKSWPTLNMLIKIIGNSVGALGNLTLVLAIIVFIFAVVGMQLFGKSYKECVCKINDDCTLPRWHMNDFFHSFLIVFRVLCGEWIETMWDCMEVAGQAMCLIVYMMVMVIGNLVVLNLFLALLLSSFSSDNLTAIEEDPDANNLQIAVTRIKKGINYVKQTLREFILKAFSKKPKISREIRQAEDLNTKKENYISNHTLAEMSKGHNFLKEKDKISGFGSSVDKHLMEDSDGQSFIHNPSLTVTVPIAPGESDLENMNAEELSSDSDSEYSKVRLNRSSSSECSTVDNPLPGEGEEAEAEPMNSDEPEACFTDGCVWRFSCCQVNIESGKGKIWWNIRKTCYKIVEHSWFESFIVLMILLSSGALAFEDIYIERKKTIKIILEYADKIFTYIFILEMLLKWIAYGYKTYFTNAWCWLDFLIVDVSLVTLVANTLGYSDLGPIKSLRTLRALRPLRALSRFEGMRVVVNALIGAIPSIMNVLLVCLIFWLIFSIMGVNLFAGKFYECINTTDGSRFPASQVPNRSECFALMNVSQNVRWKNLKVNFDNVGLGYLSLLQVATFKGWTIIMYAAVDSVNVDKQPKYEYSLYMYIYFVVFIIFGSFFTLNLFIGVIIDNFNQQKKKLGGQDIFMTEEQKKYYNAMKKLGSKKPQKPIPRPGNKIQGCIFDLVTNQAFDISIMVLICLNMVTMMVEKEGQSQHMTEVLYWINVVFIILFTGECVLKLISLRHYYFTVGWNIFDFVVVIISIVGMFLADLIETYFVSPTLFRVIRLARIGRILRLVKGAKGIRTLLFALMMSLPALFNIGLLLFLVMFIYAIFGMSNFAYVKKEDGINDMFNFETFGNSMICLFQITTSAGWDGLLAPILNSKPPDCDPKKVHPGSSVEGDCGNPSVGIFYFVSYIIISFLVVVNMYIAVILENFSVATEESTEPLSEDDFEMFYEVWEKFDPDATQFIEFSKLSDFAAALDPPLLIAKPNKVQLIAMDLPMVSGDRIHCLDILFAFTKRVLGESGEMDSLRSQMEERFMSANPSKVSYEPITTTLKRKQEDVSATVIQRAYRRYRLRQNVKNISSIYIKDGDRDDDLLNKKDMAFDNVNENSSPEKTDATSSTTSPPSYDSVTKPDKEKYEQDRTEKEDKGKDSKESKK

| SMILES | IC50 [nM] | IC50 [1] [nM] |
| --- | --- | --- |
| Cc1cccc(-c2nn(-c3cc(F)c(C(=O)NS(C)(=O)=O)cc3Cl)c3ccc(Cl)cc23)c1 [Example 52, 5-chloro-4-(5-chloro-3-(m-tolyl)-1H-indazol-1-yl)-2-fluoro-N-(methylsulfonyl)benzamide] | 39 |  |
| CS(=O)(=O)NC(=O)c1ccc(-n2nc(-c3cccc(C(F)(F)F)c3)c3cc(Cl)ccc32)c(C#N)c1 [Example 98, 4-(5-chloro-3-(3-(trifluoromethyl)phenyl)-1H-indazol-1-yl)-3-cyano-N-(methylsulfonyl)benzamide] |  | 887 |
| CS(=O)(=O)NC(=O)c1cc(Cl)c(-n2nc(Cl)c3cc(-c4ccc(Cl)cc4)ccc32)cc1F [Example 255, 5-chloro-4-(3-chloro-5-(4-chlorophenyl)-1H-indazol-1-yl)-2-fluoro-N-(methylsulfonyl)benzamide] |  | 830 |
| CS(=O)(=O)NC(=O)c1cc(Cl)c(-n2cc(-c3cccc(C#N)c3)c3cc(Cl)cnc32)cc1F [Example 194, 5-chloro-4-(5-chloro-3-(3-cyanophenyl)-1H-pyrrolo[2,3-b]pyridin-1-yl)-2-fluoro-N-(methylsulfonyl)benzamide] |  | 480 |
| CS(=O)(=O)NC(=O)c1cc(Cl)c(-n2nc(-c3cnccc3F)c3ccccc32)cc1F [Example 177, 5-chloro-2-fluoro-4-(3-(4-fluoropyridin-3-yl)-1H-indazol-1-yl)-N-(methylsulfonyl)benzamide] |  | 970 |
| COc1ccccc1-c1nn(-c2cc(F)c(C(=O)NS(C)(=O)=O)cc2Cl)c2ccccc12 [Example 174, 5-chloro-2-fluoro-4-(3-(2-methoxyphenyl)-1H-indazol-1-yl)-N-(methylsulfonyl)benzamide] |  | 850 |
| CS(=O)(=O)NC(=O)c1cc(Cl)c(-n2ncc3cc(Cl)ncc32)cc1F [Example 10, 5-chloro-4-(5-chloro-1H-pyrazolo[3,4-c]pyridin-1-yl)-2-fluoro-N-(methylsulfonyl)benzamide] |  | > 10000 |
| CS(=O)(=O)NC(=O)c1cc(F)c(-n2nc(-c3cccc(F)c3)c3cc(Cl)ccc32)cc1Cl [Example 114, 2-chloro-4-(5-chloro-3-(3-fluorophenyl)-1H-indazol-1-yl)-5-fluoro-N-(methylsulfonyl)benzamide] |  | 1440 |
| CS(=O)(=O)NC(=O)c1cc(Cl)c(-n2nc(Cl)c3cc(-c4ccc(F)nc4)ccc32)cc1F [Example 245, 5-chloro-4-(3-chloro-5-(6-fluoropyridin-3-yl)-1H-indazol-1-yl)-2-fluoro-N-(methylsulfonyl)benzamide] |  | 1670 |
| CS(=O)(=O)NC(=O)c1cc(Cl)c(-n2nc(-c3cccc(C#N)c3)c3ccccc32)cc1F [Example 181, 5-chloro-4-(3-(3-cyanophenyl)-1H-indazol-1-yl)-2-fluoro-N-(methylsulfonyl)benzamide] |  | 837 |
| CC(C)(O)C#Cc1nn(-c2cc(F)c(C(=O)NS(C)(=O)=O)cc2Cl)c2ccc(Cl)cc12 [Example 129, 5-chloro-4-(5-chloro-3-(3-hydroxy-3-methylbut-1-yn-1-yl)-1H-indazol-1-yl)-2-fluoro-N-(methylsulfonyl)benzamide] |  | 1740 |
| CS(=O)(=O)NC(=O)c1ccc(-n2nc(Cl)c3cc(Cl)ccc32)cc1F [Example 4, 4-(3,5-dichloro-1H-indazol-1-yl)-2-fluoro-N-(methylsulfonyl)benzamide] |  | > 10000 |
| CS(=O)(=O)NC(=O)c1cc(Cl)c(-n2cc(-c3ccccc3Cl)c3cccnc32)cc1F [Example 225, 5-chloro-4-(3-(2-chlorophenyl)-1H-pyrrolo[2,3-b]pyridin-1-yl)-2-fluoro-N-(methylsulfonyl)benzamide] |  | 460 |
| O=c1[nH]nc(-c2cc(Cl)c(-n3nc(-c4ccc(Cl)cc4F)c4cc(Cl)ccc43)cc2F)[nH]1 [Example 291, 5-(5-chloro-4-(5-chloro-3-(4-chloro-2-fluorophenyl)-1H-indazol-1-yl)-2-fluorophenyl)-2,4-dihydro-3H-1,2,4-triazol-3-one] |  | 10800 |
| CS(=O)(=O)NC(=O)c1cc(Cl)c(-n2cc(-c3cccc(Cl)c3)c3cccnc32)cc1F [Example 221, 5-chloro-4-(3-(3-chlorophenyl)-1H-pyrrolo[2,3-b]pyridin-1-yl)-2-fluoro-N-(methylsulfonyl)benzamide] |  | 970 |

More lines, now with the values ahead:

| IC50 [nM] | IC50 [1] [nM] | SMILES |
| --- | --- | --- |
|  | 240 | CS(=O)(=O)NC(=O)c1cc(Cl)c(-n2nc(-c3ccc([N+](=O)[O-])cc3)c3cc(Cl)ccc32)cc1F [Example 81, 5-chloro-4-(5-chloro-3-(4-nitrophenyl)-1H-indazol-1-yl)-2-fluoro-N-(methylsulfonyl)benzamide] |
|  | 130 | COc1ccc(-c2cn(-c3cc(F)c(C(=O)NS(C)(=O)=O)cc3Cl)c3ncc(Cl)cc23)cc1 [Example 196, 5-chloro-4-(5-chloro-3-(4-methoxyphenyl)-1H-pyrrolo[2,3-b]pyridin-1-yl)-2-fluoro-N-(methylsulfonyl)benzamide] |
|  | 70 | CS(=O)(=O)NC(=O)c1cc(Cl)c(-n2nc(-c3cccc(Cl)c3)c3ccccc32)cc1F [Example 170, 5-chloro-4-(3-(3-chlorophenyl)-1H-indazol-1-yl)-2-fluoro-N-(methylsulfonyl)benzamide] |
|  | 80 | CS(=O)(=O)NC(=O)c1cc(Cl)c(-n2nc(-c3ccc(F)cc3Cl)c3ccccc32)cc1F [Example 175, 5-chloro-4-(3-(2-chloro-4-fluorophenyl)-1H-indazol-1-yl)-2-fluoro-N-(methylsulfonyl)benzamide] |
|  | 226 | COc1ccc(-c2nn(-c3ccc(C(=O)NS(C)(=O)=O)cc3C#N)c3ccc(Cl)cc23)cc1 [Example 93, 4-(5-chloro-3-(4-methoxyphenyl)-1H-indazol-1-yl)-3-cyano-N-(methylsulfonyl)benzamide] |
|  | 134 | CS(=O)(=O)NC(=O)c1cc(Cl)c(-n2nc(Cl)c3ccc(OCc4ccccc4)cc32)cc1F [Example 45, 4-(6-(benzyloxy)-3-chloro-1H-indazol-1-yl)-5-chloro-2-fluoro-N-(methylsulfonyl)benzamide] |
|  | 70 | CS(=O)(=O)NC(=O)c1cc(Cl)c(-n2cc(-c3ccc(Cl)cc3F)c3cc(F)cnc32)cc1F [Example 201, 5-chloro-4-(3-(4-chloro-2-fluorophenyl)-5-fluoro-1H-pyrrolo[2,3-b]pyridin-1-yl)-2-fluoro-N-(methylsulfonyl)benzamide] |
|  | 170 | CS(=O)(=O)NC(=O)c1cc(Cl)c(-n2cc(-c3ccccc3Cl)c3cc(Cl)cnc32)cc1F [Example 198, 5-chloro-4-(5-chloro-3-(2-chlorophenyl)-1H-pyrrolo[2,3-b]pyridin-1-yl)-2-fluoro-N-(methylsulfonyl)benzamide] |
|  | 166 | CS(=O)(=O)NC(=O)c1ccc(-n2nc(Cl)c3cc(OCc4ccccc4)ccc32)c(Cl)c1 [Example 44, 4-(5-(benzyloxy)-3-chloro-1H-indazol-1-yl)-3-chloro-N-(methylsulfonyl)benzamide] |
|  | 94 | CS(=O)(=O)NC(=O)c1cc(Cl)c(-n2nc(-c3cccc(C(F)(F)F)c3)c3cc(Cl)ccc32)cc1F [Example 64, 5-chloro-4-(5-chloro-3-(3-(trifluoromethyl)phenyl)-1H-indazol-1-yl)-2-fluoro-N-(methylsulfonyl)benzamide] |
|  | 200 | COc1ccccc1-c1nn(-c2cc(F)c(C(=O)NS(C)(=O)=O)cc2Cl)c2ccc(F)cc12 [Example 146, 5-chloro-2-fluoro-4-(5-fluoro-3-(2-methoxyphenyl)-1H-indazol-1-yl)-N-(methylsulfonyl)benzamide] |
|  | 100 | Cc1ccc(-c2nn(-c3cc(F)c(C(=O)NS(C)(=O)=O)cc3Cl)c3ccc(F)cc23)cc1 [Example 156, 5-chloro-2-fluoro-4-(5-fluoro-3-(p-tolyl)-1H-indazol-1-yl)-N-(methylsulfonyl)benzamide] |
|  | 111 | CS(=O)(=O)NC(=O)c1cc(Cl)c(-n2nc(Cl)c3cc(-c4ccccc4F)ccc32)cc1F [Example 234, 5-chloro-4-(3-chloro-5-(2-fluorophenyl)-1H-indazol-1-yl)-2-fluoro-N-(methylsulfonyl)benzamide] |
|  | 214 | CC(Oc1ccc2c(c1)c(Cl)nn2-c1cc(F)c(C(=O)NS(C)(=O)=O)cc1Cl)c1ccccc1 (centres unmarked) [Example 33, 5-chloro-4-(3-chloro-5-(1-phenylethoxy)-1H-indazol-1-yl)-2-fluoro-N-(methylsulfonyl)benzamide] |
|  | 40 | CS(=O)(=O)NC(=O)c1cc(Cl)c(-n2cc(-c3ccc(Cl)cc3Cl)c3cc(F)cnc32)cc1F [Example 209, 5-chloro-4-(3-(2,4-dichlorophenyl)-5-fluoro-1H-pyrrolo[2,3-b]pyridin-1-yl)-2-fluoro-N-(methylsulfonyl)benzamide] |
|  | 216 | CS(=O)(=O)NC(=O)c1cc(Cl)c(-n2nc(Br)c3cc(Cl)ccc32)cc1F [Example 19, 4-(3-bromo-5-chloro-1H-indazol-1-yl)-5-chloro-2-fluoro-N-(methylsulfonyl)benzamide] |
|  | 410 | CS(=O)(=O)NC(=O)c1cc(Cl)c(-n2cc(-c3cccc(Cl)c3F)c3cccnc32)cc1F [Example 222, 5-chloro-4-(3-(3-chloro-2-fluorophenyl)-1H-pyrrolo[2,3-b]pyridin-1-yl)-2-fluoro-N-(methylsulfonyl)benzamide] |
|  | 267 | CS(=O)(=O)NC(=O)c1cc(F)c(-n2nc(-c3cccc(C(F)(F)F)c3)c3cc(Cl)ccc32)cc1Cl [Example 110, 2-chloro-4-(5-chloro-3-(3-(trifluoromethyl)phenyl)-1H-indazol-1-yl)-5-fluoro-N-(methylsulfonyl)benzamide] |
|  | 100 | CS(=O)(=O)NC(=O)c1cc(Cl)c(-n2nc(-c3ccc(F)cc3F)c3cc(F)ccc32)cc1F [Example 159, 5-chloro-4-(3-(2,4-difluorophenyl)-5-fluoro-1H-indazol-1-yl)-2-fluoro-N-(methylsulfonyl)benzamide] |
|  | 180 | CS(=O)(=O)NC(=O)c1cc(Cl)c(-n2cc(Cl)c3cc(-c4ccc(C(F)(F)F)cc4)cnc32)cc1F [Example 261, 5-chloro-4-(3-chloro-5-(4-(trifluoromethyl)phenyl)-1H-pyrrolo[2,3-b]pyridin-1-yl)-2-fluoro-N-(methylsulfonyl)benzamide] |
